According to patent US20070238660A1 (priority 2006, published 2007):

System: viruses
Test: Virus inactivation by fabric with attached dye under illumination
Type: cell-based
Conditions: for virus inactivation (in words): low light illumination levels, FIG. 4

`Cc1cc2cc3cc(C)c(N)cc3nc2cc1N.Cl` [acridine yellow G] was tested, and the viruses inactivated (exposure to light as low as 500 Lux) was “at least 99%”, the “virus inactivation (in words)” value was “unexpected efficiency in virus inactivation” and the “virus inactivation (in words)” value (listed as Acridine yellow G) was “very high virus inactivation”.
